Measurements as given in patent publication US4948791A, “Novel Cytotoxic cyclic depsipeptides from the tunicate trididemnum solidum” (priority 1989, dated 1990).
Values after ≈ are worked out from the molar mass of the structure shown. Numbered stars: 1 amine (or outer) side, 2 acyl side, 3 side chain; on linkers, the order of the positions; unused ones are H or OH. Bridge positions count the residues as written; N and C are the ends. Square brackets hold non-standard residues; d marks the D form. Peptide text beside a SMILES is read from it. X1 = CC[C@H](C)[C@@H](N[*:1])[C@@H](O)CC(=O)O[C@H](C(=O)[C@H](C)C(=O)[*:2])C(C)C; NMeY = CN[C@@H](Cc1ccc(O)cc1)C(=O)O; dNMeL = CN[C@H](CC(C)C)C(=O)O

Tested on: L1210 mouse leukemia cells
Assay: Three-day L1210 cell growth inhibition assay (at 37° C.)
Format: cell-based
Conditions: for growth of L1210 mouse leukemia cells in vitro: statement in words
Experimental: Three-day L1210 cell growth inhibition assay (at 37° C.)

[1] = three-day L1210 cell growth inhibition, 37° C., first ID50/ID90 column pair of Table 1
[2] = three-day L1210 cell growth inhibition, 37° C., second ID50/ID90 column pair of Table 1
[3] = three-day L1210 cell growth inhibition assay

didemnin E
ID50 [1]: 1.1 ng/mL | ID90 [1]: 7.6 ng/mL | ID50 [2]: 0.8 ng/mL | ID90 [2]: 5.6 ng/mL

(R)-3-hydroxydecanoyl-L-Gln-L-Gln-L-Gln-didemnin B [Didemnin X]
growth of L1210 mouse leukemia cells in vitro: inhibit the growth | ID50 [3]: 4 ng/mL | ID50 [1]: 4 ng/mL | ID90 [1]: 17 ng/mL | ID50 [2]: 4.8 ng/mL | ID90 [2]: 17 ng/mL

CC[C@H](C)[C@H]1NC(=O)[C@@H](NC(=O)[C@@H](CC(C)C)N(C)C(=O)[C@@H]2CCCN2C(=O)C(C)O)[C@@H](C)OC(=O)[C@H](Cc2ccc(OC)cc2)N(C)C(=O)[C@@H]2CCCN2C(=O)[C@H](CC(C)C)NC(=O)[C@@H](C)C(=O)[C@H](C(C)C)OC(=O)C[C@@H]1O (stereo partly drawn) [Didemnin B, didemnin B]
ID50 [2]: 3.8 ng/mL (≈ 0.00342 µM) | ID90 [2]: 15 ng/mL (≈ 0.0135 µM)

3-hydroxydecanoyl-L-Gln-L-Gln-L-Gln-L-Gln-didemnin B [Didemnin Y]
growth of L1210 mouse leukemia cells in vitro: inhibit the growth | ID50 [3]: 6.4 ng/mL | ID50 [1]: 6.4 ng/mL | ID90 [1]: 21 ng/mL | ID50 [2]: 4.8 ng/mL | ID90 [2]: 20 ng/mL

didemnin D
ID50 [1]: 3.4 ng/mL | ID90 [1]: 15 ng/mL | ID50 [2]: 4.2 ng/mL | ID90 [2]: 16 ng/mL

CC[C@H](C)[C@H]1NC(=O)[C@@H](NC(=O)[C@@H](CC(C)C)NC)[C@@H](C)OC(=O)[C@H](Cc2ccc(OC)cc2)N(C)C(=O)[C@@H]2CCCN2C(=O)[C@H](CC(C)C)NC(=O)[C@@H](C)C(=O)[C@H](C(C)C)OC(=O)C[C@@H]1O [Didemnin A, didemnin A] (H-[dNMeL]T[X1]LP[NMeY](Me); ester 2-C)
ID50 [1]: 7.8 ng/mL (≈ 0.00827 µM) | ID90 [1]: 58 ng/mL (≈ 0.0615 µM)
